Columns and labels:
[1] = Molar enthalpy of transition or fusion; details: Crystal; DSC
[2] = Crystal; DTA
[3] = xn = mol fraction of the nth substance listed; details: 101 kPa, Liquid, Vibrating tube method

CCCCCCCCCC(=O)O [decanoic acid]
Details | Molar enthalpy of transition or fusion [kcal/mol] | Normal melting temperature [°C]
[1] | 6.57 | –
[2] | – | 31.60

CCCCCCCCCCCC(=O)O [dodecanoic acid]
Details | Molar enthalpy of transition or fusion [kcal/mol] | Normal melting temperature [°C]
[1] | 9.04 | –
[2] | – | 44.33

CCCCCCCCCCCCCCCC(=O)O [hexadecanoic acid]
Details | Molar enthalpy of transition or fusion [kcal/mol] | Normal melting temperature [°C]
[1] | 12.2 | –
[2] | – | 63.69

CCCCCCCCCCCCCCCCCC(=O)O [octadecanoic acid]
Details | Molar enthalpy of transition or fusion [kcal/mol] | Normal melting temperature [°C]
[1] | 14.7 | –
[2] | – | 70.52

CCCCCCCCCCCCCC(=O)O [tetradecanoic acid]
Details | Molar enthalpy of transition or fusion [kcal/mol] | Normal melting temperature [°C]
[1] | 9.87 | –
[2] | – | 53.88

CC[N+](CC)(CC)CC.[Cl-] [tetraethylammonium chloride]
Details | Molar enthalpy of transition or fusion [kcal/mol] | Normal melting temperature [°C]
[1] | 12.2 | –
[2] | – | 253.63

CC[N+](CC)(CC)CC.[Cl-] [tetraethylammonium chloride] + O
mass density [kg/m3], [3]
Details | 298.15 K | 308.15 K | 318.15 K | 328.15 K | 338.15 K | 348.15 K | 358.15 K
x1 = 0.0173 | 1000.2 | 996.7 | 992.3 | – | – | – | –
x1 = 0.0403 | 1005.7 | 1001.1 | 996.5 | 990.9 | 982.8 | 971.4 | 953.1
x1 = 0.0727 | 1014.9 | 1009.5 | 1003.9 | 998.3 | 992.2 | 985.7 | 977.1
x1 = 0.1213 | 1027 | 1020.8 | 1014.4 | 1008 | 1001.5 | 995.1 | 988.4
x1 = 0.1994 | 1035.4 | 1029.1 | 1022.8 | 1016.4 | 1010 | 1003.4 | 997.2

C[N+](C)(C)C.[Cl-] [tetramethylammonium chloride]
Details | Normal melting temperature [°C]
[2] | 339.72

C[N+](C)(C)C.[Cl-] [tetramethylammonium chloride] + O
mass density [kg/m3], [3]
Details | 298.15 K | 308.15 K | 318.15 K | 328.15 K | 338.15 K | 348.15 K | 358.15 K
x1 = 0.026 | 1001.5 | 998.1 | – | – | – | – | –
x1 = 0.06 | 1005.7 | 1001.7 | 997.5 | 991.3 | 985.1 | 975.6 | 959.5
x1 = 0.1062 | 1012.8 | 1008.6 | 1004.1 | 999.5 | 993.1 | 986.6 | 977.1
x1 = 0.1731 | 1022.5 | 1018.1 | 1013.5 | 1008.9 | 1004 | 998.9 | 993
x1 = 0.2831 | 1034.1 | 1029.5 | 1025 | 1020.3 | 1015.7 | 1010.9 | 1006.1

— the NIST ThermoML archive (doi:10.1016/j.fluid.2017.04.007)
